We go through one molecule from ChEMBL document CHEMBL5257025, “Artemisinin-Derived Dimers: Potent Antimalarial and Anticancer Agents” (J Med Chem, 2016).

This test deals with Plasmodium berghei. As to the kind of experiment: In vivo antimalarial activity against Plasmodium berghei infected mouse model assessed as survival time at 8 mg/kg, po in presence of Mefloquine hydrochloride.

`CO[C@H]1O[C@@H]2O[C@@]3(C)CC[C@H]4[C@H](C)CC[C@@H]([C@H]1C)[C@@]24OO3`: the survival time was found to be 23 days.
